Test results taken from the supplement of paper PMC10307832.

How the values were obtained:
Experiment in all cases: relative viability (nuclei count vs DMSO), 5 days (fraction); higher = more cells survive
NCI-H2009 = tested on: NCI-H2009
How it was run: (§1)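 After 5 days of treatment, lung cancer cells in 1536-well plates were fixed and stained in a single step (final 0.05% Triton X-100, 1% formaldehyde, 1 ug/ml Hoechst) and their nuclei counted on 4× images. Treatment had been applied by pin tool the day after seeding as one drug alone or as a fixed anchor-drug dose with five library-drug doses (not always all listed) in √10 steps. Relative viability is the nuclei count of treated wells divided by that of vehicle wells, and values are medians of duplicate plates.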

201T = tested on: 201T
How it was run: as §1

NCI-H650 = tested on: NCI-H650
How it was run: as §1

NCI-H1650 = tested on: NCI-H1650
How it was run: as §1

HCC-44 = tested on: HCC-44
How it was run: as §1

RERF-LC-KJ = tested on: RERF-LC-KJ
How it was run: as §1

NCI-H1734 = tested on: NCI-H1734
How it was run: as §1

NCI-H441 = tested on: NCI-H441
How it was run: as §1

HCC-15 = tested on: HCC-15
How it was run: as §1

LCLC-97TM1 = tested on: LCLC-97TM1
How it was run: as §1

NCI-H2126 = tested on: NCI-H2126
How it was run: as §1

A-427 = tested on: A-427
How it was run: as §1

HCC-366 = tested on: HCC-366
How it was run: as §1

NCI-H1993 = tested on: NCI-H1993
How it was run: as §1

SW 1573 = tested on: SW 1573
How it was run: as §1

HARA = tested on: HARA
How it was run: as §1

NCI-H460 = tested on: NCI-H460
How it was run: as §1

LOU-NH91 = tested on: LOU-NH91
How it was run: as §1

HCC-78 = tested on: HCC-78
How it was run: as §1

COR-L23 = tested on: COR-L23
How it was run: as §1

ChaGo-K-1 = tested on: ChaGo-K-1
How it was run: as §1

NCI-H2023 = tested on: NCI-H2023
How it was run: as §1

LCLC-103H = tested on: LCLC-103H
How it was run: as §1

## O=c1[nH]c2ccccc2n1C1CCN(CCCC(c2ccc(F)cc2)c2ccc(F)cc2)CC1 [Pimozide] + C[C@@H](Oc1cc(-c2cnn(C3CCNCC3)c2)cnc1N)c1c(Cl)ccc(F)c1Cl [Crizotinib] (partner 1 µM)
NCI-H2009; first compound 0.08 µM
  relative viability: 1.02
NCI-H2009; first compound 0.253 µM
  relative viability: 0.995
NCI-H2009; first compound 0.8 µM
  relative viability: 1.09
NCI-H2009; first compound 2.53 µM
  relative viability: 1.01
NCI-H2009; first compound 8 µM
  relative viability: 0.889
201T; first compound 0.08 µM
  relative viability: 0.995
201T; first compound 0.253 µM
  relative viability: 1
201T; first compound 0.8 µM
  relative viability: 1.03
201T; first compound 2.53 µM
  relative viability: 1.05
201T; first compound 8 µM
  relative viability: 0.964
NCI-H650; first compound 0.08 µM
  relative viability: 0.707
NCI-H650; first compound 0.253 µM
  relative viability: 0.711
NCI-H650; first compound 0.8 µM
  relative viability: 0.74
NCI-H650; first compound 2.53 µM
  relative viability: 0.633
NCI-H650; first compound 8 µM
  relative viability: 0.802
NCI-H1650; first compound 0.08 µM
  relative viability: 0.923
NCI-H1650; first compound 0.253 µM
  relative viability: 0.946
NCI-H1650; first compound 0.8 µM
  relative viability: 0.791
NCI-H1650; first compound 2.53 µM
  relative viability: 0.891
NCI-H1650; first compound 8 µM
  relative viability: 0.835
HCC-44; first compound 0.08 µM
  relative viability: 0.73
HCC-44; first compound 0.253 µM
  relative viability: 0.733
HCC-44; first compound 0.8 µM
  relative viability: 0.743
HCC-44; first compound 2.53 µM
  relative viability: 0.829
HCC-44; first compound 8 µM
  relative viability: 0.75
RERF-LC-KJ; first compound 0.08 µM
  relative viability: 0.809
RERF-LC-KJ; first compound 0.253 µM
  relative viability: 0.815
RERF-LC-KJ; first compound 0.8 µM
  relative viability: 0.764
RERF-LC-KJ; first compound 2.53 µM
  relative viability: 0.581
RERF-LC-KJ; first compound 8 µM
  relative viability: 0.705
NCI-H1734; first compound 0.08 µM
  relative viability: 0.646
NCI-H1734; first compound 0.253 µM
  relative viability: 0.633
NCI-H1734; first compound 0.8 µM
  relative viability: 0.716
NCI-H1734; first compound 2.53 µM
  relative viability: 0.609
NCI-H1734; first compound 8 µM
  relative viability: 0.722
NCI-H441; first compound 0.08 µM
  relative viability: 0.608
NCI-H441; first compound 0.253 µM
  relative viability: 0.646
NCI-H441; first compound 0.8 µM
  relative viability: 0.652
NCI-H441; first compound 2.53 µM
  relative viability: 0.568
NCI-H441; first compound 8 µM
  relative viability: 0.693
HCC-15; first compound 0.08 µM
  relative viability: 0.835
HCC-15; first compound 0.253 µM
  relative viability: 0.771
HCC-15; first compound 0.8 µM
  relative viability: 0.724
HCC-15; first compound 2.53 µM
  relative viability: 0.761
HCC-15; first compound 8 µM
  relative viability: 0.797
LCLC-97TM1; first compound 0.08 µM
  relative viability: 0.337
LCLC-97TM1; first compound 0.253 µM
  relative viability: 0.356
LCLC-97TM1; first compound 0.8 µM
  relative viability: 0.296
LCLC-97TM1; first compound 2.53 µM
  relative viability: 0.424
LCLC-97TM1; first compound 8 µM
  relative viability: 0.413
NCI-H2126; first compound 0.08 µM
  relative viability: 1.06
NCI-H2126; first compound 0.253 µM
  relative viability: 0.976
NCI-H2126; first compound 0.8 µM
  relative viability: 0.976
NCI-H2126; first compound 2.53 µM
  relative viability: 1.02
NCI-H2126; first compound 8 µM
  relative viability: 1
A-427; first compound 0.08 µM
  relative viability: 0.802
A-427; first compound 0.253 µM
  relative viability: 0.839
A-427; first compound 0.8 µM
  relative viability: 0.896
A-427; first compound 2.53 µM
  relative viability: 0.845
A-427; first compound 8 µM
  relative viability: 0.878
HCC-366; first compound 0.08 µM
  relative viability: 0.574
HCC-366; first compound 0.253 µM
  relative viability: 0.455
HCC-366; first compound 0.8 µM
  relative viability: 0.448
HCC-366; first compound 2.53 µM
  relative viability: 0.503
HCC-366; first compound 8 µM
  relative viability: 0.525
NCI-H1993; first compound 0.08 µM
  relative viability: 0.818
NCI-H1993; first compound 0.253 µM
  relative viability: 0.816
NCI-H1993; first compound 0.8 µM
  relative viability: 0.816
NCI-H1993; first compound 2.53 µM
  relative viability: 0.859
NCI-H1993; first compound 8 µM
  relative viability: 0.898
SW 1573; first compound 0.08 µM
  relative viability: 0.797
SW 1573; first compound 0.253 µM
  relative viability: 0.759
SW 1573; first compound 0.8 µM
  relative viability: 0.803
SW 1573; first compound 2.53 µM
  relative viability: 0.805
SW 1573; first compound 8 µM
  relative viability: 0.779
HARA; first compound 0.08 µM
  relative viability: 0.991
HARA; first compound 0.253 µM
  relative viability: 1.07
HARA; first compound 0.8 µM
  relative viability: 1.01
HARA; first compound 2.53 µM
  relative viability: 0.927
HARA; first compound 8 µM
  relative viability: 0.961
NCI-H460; first compound 0.08 µM
  relative viability: 0.841
NCI-H460; first compound 0.253 µM
  relative viability: 0.671
NCI-H460; first compound 0.8 µM
  relative viability: 0.899
NCI-H460; first compound 2.53 µM
  relative viability: 0.871
NCI-H460; first compound 8 µM
  relative viability: 0.89
LOU-NH91; first compound 0.08 µM
  relative viability: 0.52
LOU-NH91; first compound 0.253 µM
  relative viability: 0.733
LOU-NH91; first compound 0.8 µM
  relative viability: 0.73
LOU-NH91; first compound 2.53 µM
  relative viability: 0.759
LOU-NH91; first compound 8 µM
  relative viability: 0.581
HCC-78; first compound 0.08 µM
  relative viability: 0.263
HCC-78; first compound 0.253 µM
  relative viability: 0.339
HCC-78; first compound 0.8 µM
  relative viability: 0.333
HCC-78; first compound 2.53 µM
  relative viability: 0.354
HCC-78; first compound 8 µM
  relative viability: 0.315
COR-L23; first compound 0.08 µM
  relative viability: 0.656
COR-L23; first compound 0.253 µM
  relative viability: 0.606
COR-L23; first compound 0.8 µM
  relative viability: 0.575
COR-L23; first compound 2.53 µM
  relative viability: 0.601
COR-L23; first compound 8 µM
  relative viability: 0.575
ChaGo-K-1; first compound 0.08 µM
  relative viability: 1.18
ChaGo-K-1; first compound 0.253 µM
  relative viability: 1.04
ChaGo-K-1; first compound 0.8 µM
  relative viability: 1.15
ChaGo-K-1; first compound 2.53 µM
  relative viability: 1.02
ChaGo-K-1; first compound 8 µM
  relative viability: 0.944
NCI-H2023; first compound 0.08 µM
  relative viability: 0.539
NCI-H2023; first compound 0.253 µM
  relative viability: 0.615
NCI-H2023; first compound 0.8 µM
  relative viability: 0.742
NCI-H2023; first compound 2.53 µM
  relative viability: 0.524
NCI-H2023; first compound 8 µM
  relative viability: 0.522
LCLC-103H; first compound 0.08 µM
  relative viability: 1
LCLC-103H; first compound 0.253 µM
  relative viability: 0.967
LCLC-103H; first compound 0.8 µM
  relative viability: 1.02
LCLC-103H; first compound 2.53 µM
  relative viability: 1.07
LCLC-103H; first compound 8 µM
  relative viability: 1.12
